Read-outs that look alike come from different tables or passages of the source.
Assays:
[1] = immediate release vasoconstrictor; at best; cited from earlier work

Protocol for rat sciatic nerve: The duration of local anesthesia induced by the bupivacaine-loaded microspheres, prepared from PLGA 65:35, with and without the co-administration of an augmenting agent, is tested in a rat sciatic nerve model for localized local anesthesia. […] The latency test determines the time, in seconds, before a rat withdraws its hindpaw from a hotplate set to a safe but uncomfortable temperature (56° C.).
Maximum sciatic nerve sensory blockade is defined as having a latency of about 12 seconds or higher.
In this example, a large number of pharmaceutical agents were tested for activity in augmenting the duration of local anesthetic activity. Bupivacaine-containing microspheres at about 75% loading, by weight, were injected perineurally into rat sciatic nerve at a dose of 150mg/kg (weight microspheres/weight rat) to dose of approximately 50 mg/nerve. For the injections, needle placement adjacent to the target nerve was optimized by intermittent electrical e stimulation of the target nerve (via the injection needle) with low amplitude current to produce limb flexion. For the injections, the microspheres were suspended in a carrier vehicle suitable for injection. While any pharmaceutically acceptable carrier vehicle is acceptable, for these experiments the carrier vehicle was 1% sodium carboxymethylcellulose and 1% Tween 80 in water.
Compounds to be tested were co-injected with bupivacaine containing microspheres (i.e., mixed as additives into the carrier vehicle) in a range of concentrations. Results are expressed as percent increase in duration relative to non-augmented durations that were obtained in the same animal model.

Row | SMILES | Duration Anesthesia As Percent of Control (rat sciatic nerve; 0.1 % additive conc., Placebo (no bupivacaine)) | Duration Anesthesia As Percent of Control (toxicity noted) (rat sciatic nerve; 10 % additive conc. in carrier vehicle, LAB 150 mg/kg) | Duration Anesthesia As Percent of Control (rat sciatic nerve; 10 % additive conc., no LAB) | prolongation of local anesthetic activity [1]
1 | COc1cc2c(c(OC)c1OC)-c1ccc(OC)c(=O)cc1[C@@H](NC(C)=O)CC2 [Colchicine] | 0% of Control | toxic | 0% of Control | 
2 | CNC[C@H](O)c1ccc(O)c(O)c1 [epinephrine] |  |  |  | about 1 hour
